Laboratory results published in patent EP3838286B1, “ANTIMICROBIAL PEPTIDE FROM POLISTES GALLICUS VENOM AND ITS ANALOGS” (Latoxan, priority 2019, dated 2021).
Values after ≈ are worked out from the molar mass of the structure shown. Read-outs that look alike come from different tables or passages of the source. Square brackets hold non-standard residues; d marks the D form. Peptide text beside a SMILES is read from it.

Legend:
[1] = system: B. subtilis; assay: Selection for resistant bacteria (serial passaging); format: cell-based; details: daily exposure at sub-MIC levels, 30 days; antibiotic: after 10 days
Procedure: (§1) To evaluate if populations of AMP-resistant bacteria could be selected, cultures were continuously exposed to LTX-gallicune-1 (I1N1) and LTX-gallicune-2(R1W8) peptides for a duration of 30 days, as previously described (Oyama et al., 2017 Biofilms Microbiomes, Dec 1;3:33). Briefly, broth microdilution susceptibility testing was performed using a standard doubling-dilution series of gallicune peptides concentrations on day 1. Following incubation of the cultures for 24 h, and determination of the MIC, the well that contained the highest concentration of AMPs permitting growth was diluted 1: 1000 in MH and used to provide the inoculum for the next MIC assay; this process was repeated daily for 30 days.

[2] = system: P. aeruginosa; assay: as above; format: cell-based; details: daily exposure at sub-MIC levels, 30 days; antibiotics: after 10 days
Procedure: as §1

[3] = Cytotoxicity assay (resazurin); format: cell-based; details: human
Procedure: Normal human cells used were BEAS-2B (ATCC CRL-9609), IMR-90 (ATCC CCL-186) and Human Umbilical Vein Endothelial Cells (HUVEC) (from Sigma-Aldrich) corresponding respectively to human normal lung epithelial, normal lung fibroblast cells and human normal endothelial cells. All cells except HUVEC cells were cultured in Dulbecco's modified essential medium (DMEM) supplemented with 10% fetal calf serum (FCS), 1% L-glutamine and 1% antibiotics (all from Invitrogen). HUVEC cells were cultured in specific endothelial media (from Sigma Aldrich). Cells were seeded onto […] maintained in a 5% CO2 incubator at 37 °C. Cells grown on 25 cm^2 flasks were detached using trypsin-EDTA solution (from Thermofisher), counted using Mallassez counting chamber and seeded into 96-well cell culture plates (Greiner bio-one) at approximately 10,000 cells per well. The cells were left to grow for 48-72 h at 37 °C in a 5% CO2 incubator until they reached confluence. Plates were then aspirated and increasing concentrations of peptides diluted in culture media were added to the cells for 48 h at 37 °C in a 5% CO2 incubator. At the end of the incubation, wells were emptied and cell viability was evaluated using Resazurin based in vitro toxicity assay kit (from Sigma-Aldrich) following manufacturer's instructions. Briefly, Resazurin stock solution was diluted 1:10 in sterile PBS containing calcium and magnesium (PBS, pH 7.4) and empty wells were filled with 100 µL of the diluted solution. After 4 h incubation at 37 °C, fluorescence intensity was measured using microplate reader (Synergy Mx, Biotek) with an excitation wavelength of 530 nm and an emission wavelength of 590 nm. The fluorescence values were normalized by the controls (buffer treated cells) and expressed as percent viability. The IC50 values of peptides on cell viability (i.e. the concentration of derivative causing a reduction of 50% of cell viability) were determined using GraphPad® Prism 7 software. t-Test and two way ANOVA analyses were used to address the significant differences between mean values with significance set at p < 0.05.

[4] = system: Pseudomonas aeruginosa; assay: Stability of the peptides to proteases and human serum (MIC of digested peptides); format: in vitro ADME; details: against Pseudomonas aeruginosa
Procedure: In order to evaluate the stability of the peptides to condition they will face in vivo, their resistance to proteases and human serum was evaluated (Oyama et al., 2017 Biofilms Microbiomes, Dec 1;3:33). Briefly, one volume of peptides (at 1 mM) was diluted in one volume of proteases (Pepsin, Trypsin, Chymotrypsin, Papain all from Sigma Aldrich and diluted at 2 mg/ml in HCl 10 mM pH2 for Pepsin, PBS pH 7 for Trypsin and Chymotrysin and PBS pH 6 for Papain) or human serum (Sigma Aldrich H4522). Peptides incubated in the same conditions in PBS were used as controls. After 4 h (for proteases) and 4 or 24 h (for human serum) of incubation at 37°C, PMSF was added to the reaction mixture at a final concentration of 100 µM to stop the digestion. MIC of the digested peptides were then determined as explained above.

[5] = system: MDA-MB-231; assay: Antitumor / antiproliferative activity (resazurin); format: cell-based, human; details: breast cancer cells; 5,000 cells/well; 48 h; read-out: IC50 antiproliferative effect MDA-MB-231
Procedure: (§2) Human cancer cell lines (Mia PaCa-2 (CRL-1420), PC-3 (CRL-1435), MDA-MB-231 (HTB-26)) and normal lung fibrobasts (BEAS-2B (ATCC CRL-9609) and IMR-90 (ATCC CCL-186)) were obtained from American Type Culture Collection (ATCC). HUVEC cells were obtained from Sigma Aldrich and were grown in defined all-in-one ready to use endothelial cell growth medium (Sigma Aldrich). Other cells were cultured in Dulbecco's modified Eagle's medium (DMEM, Gibco Life Technologies) supplemented with 10% heat-inactivated fetal calf serum (FCS, Lonza) at 37 °C in an incubator containing 5% CO2. Cells were sub-cultured in new media every 3-4 days. Antiproliferative / antitumor effects of the peptides were measured as previously described (Borie et al., Eur J Med Chem. 2018;148:306-313). Briefly, cells were detached from growing flask using trypsin, cells were counted and seeded in 96 well-plates in the growth media at an initial cell density of 5000 cells/well. Cells were left for 4 h to attach to the wells. Cells were then treated with increasing concentrations of peptides diluted in culture media. After 48 h incubation at 37 °C in a 5% CO2 incubator, wells were emptied and cell number was evaluated using Resazurin based in vitro toxicity assay kit (from Sigma-Aldrich) following manufacturer's instructions. Briefly, Resazurin stock solution was diluted 1:10 in sterile PBS containing calcium and magnesium (PBS, pH 7.4) and empty wells were filled with 100 µL of the diluted solution. After 4 h incubation at 37 °C, fluorescence intensity was measured using microplate reader (Synergy Mx, Biotek) with an excitation wavelength of 530 nm and an emission wavelength of 590 nm. The fluorescence values were normalized by the controls (buffer treated cells) and expressed as per-cent viability. The IC50 values of peptides on cell division / proliferation (i.e. the concentration of derivative causing a reduction of 50% of cell division) were determined using GraphPad ® Prism 7 software. t-Test and two way ANOVA analyses were used to address the significant differences between mean values with significance set at p < 0.05.

[6] = system: MiaPaCa-2; assay: Antitumor / antiproliferative activity (resazurin); format: cell-based, human; details: pancreas cancer cells; 5,000 cells/well; 48 h; read-out: IC50 antiproliferative effect MiaPaCa-2
Procedure: as §2

[7] = system: PC-3; assay: Antitumor / antiproliferative activity (resazurin); format: cell-based, human; details: prostate cancer cells; 5,000 cells/well; 48 h; read-out: IC50 antiproliferative effect PC-3
Procedure: as §2

[8] = system: P. aeruginosa
[9] = system: A.baumani
[10] = system: L. lactis
[11] = system: B. subtilis (Nisin-resistant)
[12] = system: A. gandavensis
[13] = system: E. coli EHEC K88
[14] = system: P. aeruginosa FQR
[15] = system: P. aeruginosa 01
[16] = system: S. flexneri
[17] = system: C. farmeri
[18] = system: C. rodentium
[19] = system: S. enterica
[20] = system: V. alginolyticus
[21] = system: H. pylori
[22] = system: M. smegmatis; details: 72 h
[23] = system: P. aeruginosa; assay: Antimicrobial tests (MIC/MBC, two-fold serial dilution); format: cell-based, Pseudomonas aeruginosa (ATCC 9037); details: Table 3, n=4
[24] = system: S. aureus; assay: Antimicrobial tests (MIC, two-fold serial dilution); format: cell-based, Staphylococcus aureus (ATCC 6538P); details: Staphylococcus aureus; Table 3; n=4
[25] = system: E. coli; assay: as above; format: cell-based, E. coli (ATCC 8739); details: Escherichia coli; Table 3; n=4
[26] = system: B. subtilis; assay: as above; format: cell-based, Bacillus subtilis (ATCC 6633); details: Bacillus subtilis; Table 3; n=4
[27] = system: MDA-MB-231; assay: Antitumor / antiproliferative activity (resazurin); format: cell-based; details: Homo sapiens, breast cancer cells, 5,000 cells/well, 48 h, read-out: IC50 antiproliferative effect MDA-MB-231
Procedure: as §2, with “The IC50 values of peptides on cell division / proliferation (i.e. the concentration of derivative causing a reduction of 50% of cell division) were determined using GraphPad ® Prism 7 software. t-Test and two way ANOVA analyses were used to address the significant differences between mean values with significance set at p < 0.05.” left out

[28] = system: MiaPaCa-2; assay: Antitumor / antiproliferative activity (resazurin); format: cell-based; details: Homo sapiens, MIA PaCa-2; pancreas cancer cells; 5,000 cells/well; 48 h; read-out: IC50 antiproliferative effect MiaPaCa-2
Procedure: as §2, with “The IC50 values of peptides on cell division / proliferation (i.e. the concentration of derivative causing a reduction of 50% of cell division) were determined using GraphPad ® Prism 7 software. t-Test and two way ANOVA analyses were used to address the significant differences between mean values with significance set at p < 0.05.” left out

[29] = system: PC-3; assay: Antitumor / antiproliferative activity (resazurin); format: cell-based; details: Homo sapiens, prostate cancer cells, 5,000 cells/well, 48 h, read-out: IC50 antiproliferative effect PC-3
Procedure: as §2, with “The IC50 values of peptides on cell division / proliferation (i.e. the concentration of derivative causing a reduction of 50% of cell division) were determined using GraphPad ® Prism 7 software. t-Test and two way ANOVA analyses were used to address the significant differences between mean values with significance set at p < 0.05.” left out

## C/C(=C\C(=O)OCCCCCCCCC(=O)O)C[C@@H]1OC[C@H](C[C@@H]2O[C@H]2[C@@H](C)[C@H](C)O)[C@@H](O)[C@H]1O [Mupirocin]
[1]
  change of MIC against B. subtilis on serial passaging (resistance acquisition): increasing

## CO/N=C1\CN(c2nc3c(cc2F)c(=O)c(C(=O)O)cn3C2CC2)CC1CN (stereo not drawn) [Gemifloxacin]
[2]
  change of MIC against P. aeruginosa on serial passaging (resistance acquisition): increasing

## CC[C@@H](C)[C@@H](N)C(=O)N[C@@H](CC(C)C)C(=O)N[C@@H](CCCCN)C(=O)N[C@@H](C)C(=O)N[C@H](C(=O)N[C@@H](CCCCN)C(=O)N[C@@H](CCCCN)C(=O)N[C@@H](CC(C)C)C(=O)N[C@@H](CC(C)C)C(=O)N[C@@H](CCCCN)C(=O)N[C@H](CC(N)=O)C(N)=O)[C@@H](C)CC [LTX-gallicune-1(i1D-n11D)] (H-[dI]LKAIKKLLK[dN]-NH2)
[3]; BEAS-2B normal lung epithelial cells, normal lung epithelium, read-out: Cytotoxicity IC50 (µM) BEAS
  CC50 at 48 h: 391 µM
[3]; HUVEC (human umbilical vein endothelial cells), normal endothelium, read-out: Cytotoxicity IC50 (µM) HUVEC
  CC50 at 48 h: 436 µM
[3]; IMR-90 normal lung fibroblast cells, read-out: Cytotoxicity IC50 (µM) IMR90
  CC50 at 48 h: 362 µM
[4]; after 4 h at 37°C in human serum
  MIC (µM) Serum4h: >50 µM
[4]; after 4 h at 37°C with chymotrypsin, pH 7
  MIC (µM) Chymotrypsin: >50 µM
[4]; after 4 h at 37°C with pepsin, pH2
  MIC (µM) Pepsin: >50 µM
[4]; after 4 h at 37°C with trypsin, pH 7
  MIC (µM) Trypsin: >50 µM
[4]; after 24 h at 37°C in human serum
  MIC (µM) Serum24h: 25 µM
[4]; peptide incubated in PBS, not treated with proteases
  MIC (µM) Control: 3.125 µM
[5]
  IC50: 75.6 µM
[6]
  IC50: 4.61 µM
[7]
  IC50: 32.3 µM
[8]
  MBC (µM) P. aeruginosa: 1.5 µM (≈ 1.92 µg/mL)
  MIC (µM) P. aeruginosa: 1.5 µM (≈ 1.92 µg/mL)
  MIC PA: 1.5 µM (≈ 1.92 µg/mL)
[9]
  MIC (µM) A.baumani: 12.5 µM (≈ 16 µg/mL)
[10]
  MBC (µM) L. lactis: 0.78 µM (≈ 0.999 µg/mL)
  MIC (µM) L. lactis: 1.5 µM (≈ 1.92 µg/mL)
[11]
  MBC (µM) B. subtilis (Nisin-resistant): 6.25 µM (≈ 8 µg/mL)
  MIC (µM) B. subtilis (Nisin-resistant): 6.25 µM (≈ 8 µg/mL)
[12]
  MBC (µM) A. gandavensis: 1.5 µM (≈ 1.92 µg/mL)
  MIC (µM) A. gandavensis: 1.5 µM (≈ 1.92 µg/mL)
[13]
  MBC (µM) E. coli EHEC K88: 50 µM (≈ 64 µg/mL)
  MIC (µM) E. coli EHEC K88: 25 µM (≈ 32 µg/mL)
[14]
  MBC (µM) P. aeruginosa FQR: 25 µM (≈ 32 µg/mL)
  MIC (µM) P. aeruginosa FQR: 6.25 to 12.5 µM
[15]
  MBC (µM) P. aeruginosa 01: 12.5 µM (≈ 16 µg/mL)
  MIC (µM) P. aeruginosa 01: 6.25 µM (≈ 8 µg/mL)
[16]
  MBC (µM) S. flexneri: 12.5 µM (≈ 16 µg/mL)
  MIC (µM) S. flexneri: 12.5 µM (≈ 16 µg/mL)
[17]
  MBC (µM) C. farmeri: 12.5 µM (≈ 16 µg/mL)
  MIC (µM) C. farmeri: 6.25 µM (≈ 8 µg/mL)
[18]
  MBC (µM) C. rodentium: 25 µM (≈ 32 µg/mL)
  MIC (µM) C. rodentium: 25 µM (≈ 32 µg/mL)
[19]
  MBC (µM) S. enterica: 25 µM (≈ 32 µg/mL)
  MIC (µM) S. enterica: 25 µM (≈ 32 µg/mL)
[20]
  MBC (µM) V. alginolyticus: 0.78 µM (≈ 0.999 µg/mL)
  MIC (µM) V. alginolyticus: 0.78 µM (≈ 0.999 µg/mL)
[21]
  MBC (µM) H. pylori: 25 µM (≈ 32 µg/mL)
  MIC (µM) H. pylori: 25 µM (≈ 32 µg/mL)
[22]
  MIC (µM) M. smegmatis: 25 µM (≈ 32 µg/mL)

## Gentamycine
[23]
  MIC: 0.3 µM

## CC1(C)S[C@@H]2[C@H](NC(=O)[C@H](N)c3ccc(O)cc3)C(=O)N2[C@H]1C(=O)O [Amoxicilline]
[23]; Pseudomonas aeruginosa
  MIC: > 100 µM
[24]
  MIC: 0.9 µM (≈ 0.329 µg/mL)
[25]
  MIC: 9 µM (≈ 3.29 µg/mL)
[26]
  MIC: 0.45 to 0.9 µM (≈ 0.164 to 0.329 µg/mL)

## COc1cccc2c1C(=O)c1c(O)c3c(c(O)c1C2=O)C[C@@](O)(C(=O)CO)C[C@@H]3O[C@H]1C[C@H](N)[C@H](O)[C@H](C)O1 [Doxo, Doxorubicine]
[27]
  IC50: 79.8 nM
[28]
  IC50: 190 nM
[29]
  IC50: 315 nM
